≈ marks a conversion by molar mass, not a printed value. Where a name gives a salt, the structure may show the parent alone. Read-outs that look alike come from different tables or passages of the source.
Assays:
[1] = target: T1, human stromelysin (MMP-3) (Homo sapiens, UniProt P08254); test: Inhibition of enzymatic activity of catalytic domain of stromelysin (fluorogenic substrate); assay type: biochemical; settings: pH 6.5, 15 min preincubation
T1 construct: enzymatic activity of the catalytic domain of human stromelysin; made in house
T1 sequence (P08254 100-272 limits assumed): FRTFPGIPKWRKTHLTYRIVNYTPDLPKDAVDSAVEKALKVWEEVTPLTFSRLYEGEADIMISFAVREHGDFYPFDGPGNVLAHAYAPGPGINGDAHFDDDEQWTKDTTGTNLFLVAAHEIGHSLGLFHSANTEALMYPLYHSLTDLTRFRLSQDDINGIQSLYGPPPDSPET
Experimental: (§1) Preparation and determination of the enzymatic activity of the catalytic domain of human stromelysin and of neutrophil collagenase.
(§2) The two enzymes—stromelysin (MMP-3) and neutrophil collagenase (MMP-8)—were prepared according to Ye et al. (Biochemistry; 31 (1992) pages 11231-11235) or Weithmann et al. (Inflamm Res 46(1997) 246-252). For measurement of the inhibitory action on the enzymatic activity, 70 μl of buffer solution and 10 μl of enzyme solution were incubated for 15 minutes with 10 μl of a 10% strength (v/v) aqueous dimethyl sulfoxide solution which optionally contained the enzyme inhibitor. After addition of 10 μl of a 10% strength (v/v) aqueous dimethyl sulfoxide solution which contained 1 mmol/l of the substrate, the enzyme reaction was monitored by fluorescence spectroscopy (328 nm (ex)/393 nm (em)). The enzyme activity was shown as the extinction increase/minute. The IC50 values listed in Table 2 were determined as those inhibitor concentrations which in each case led to a 50% inhibition of the enzyme. The buffer solution contained 0.05% of Brij (Sigma, Deisenhofen, Germany) and 0.1 mol/l of piperazine-N,N′-bis[2-ethanesulfonic acid]/NaOH, 0.1 mol/l of NaCl, 0.01 mol/l of CaCl2 and 0.1 mol/l of piperazine-N,N′-bis[2-ethanesulfonic acid] (pH=6.5). The enzyme solution contained 5 μg/ml of one of the enzyme domains prepared according to Ye et al. The substrate solution contained 1 mmol/l of the fluorogenic substrate (7-methoxycoumarin-4-yl)acetyl-Pro-Leu-Gly-Leu-3-(2′,4′-dinitrophenyl)-L-2,3-diaminopropionyl-Ala-Arg-NH2 (Bachem, Heidelberg, Germany).

[2] = target: T2, neutrophil collagenase (MMP-8) (Homo sapiens, UniProt P22894); test: Inhibition of enzymatic activity of catalytic domain of neutrophil collagenase (fluorogenic substrate); assay type: biochemical; settings: pH 6.5, 15 min preincubation
T2 construct: catalytic domain of human stromelysin and of neutrophil collagenase; made in house
T2 sequence (P22894 100-262 limits assumed): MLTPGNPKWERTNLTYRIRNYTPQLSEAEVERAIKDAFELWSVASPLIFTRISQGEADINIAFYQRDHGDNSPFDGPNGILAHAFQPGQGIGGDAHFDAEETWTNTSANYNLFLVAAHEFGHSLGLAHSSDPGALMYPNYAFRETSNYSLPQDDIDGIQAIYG
Experimental: as §1, §2

[3] = Determination of the solubility in water (HPLC against external standard); assay type: physicochemical
Experimental: Determination of the solubility in water of the free acid of 2-(4′-chloro-biphenyl-4-sulfonylamino)-5-(5-fluoro-2,3-dihydroindol-1-yl)-5-oxopentanoic acid according to Example 8 and its tromethamine salt according to Example 15
(§3) Approximately 50 mg of test substance according to 1.1a) were initially introduced into a 100 ml Erlenmeyer flask. After addition of 10 ml of water, the mixture was stirred at 25° C. After 2 hours (h) and after 3 h, aliquots were taken and centrifuged. 1 ml each of the supernatant was diluted to 10 ml with mobile phase. The concentration of the active component was determined by means of HPLC against an external standard. Repetition of the experiment.
as §3, with “Approximately 800” for “Approximately 50”, “of the tromethamine salt” for “of test substance”, “to 1.1b)” for “to 1.1a)”, “2 h” for “2 hours (h)”, “to 100” for “to 10”

| IC50 [1] | IC50 [2] | Compound | other results |
| --- | --- | --- | --- |
| 100 nM | – | O=C(CC[C@H](NS(=O)(=O)c1ccc(-c2ccc(Cl)cc2)cc1)C(=O)O)NCCCN1CCOCC1 [Example 4, 2-(4′-chloro-biphenyl-4-sulfonylamino)-4-(3-morpholin-4-ylpropylcarbamoyl)butyric acid] | – |
| 100 nM | 10 nM | O=C(CC[C@H](NS(=O)(=O)c1ccc(-c2ccccc2)cc1)C(=O)O)Nc1cccc2ccccc12 [Example 1, 2-(biphenyl-4-sulfonylamino)4-(naphthalen-1-ylcarb-amoyl)butyric acid] | – |
| 500 nM | – | O=C(O)[C@H](CCC(=O)N1CCc2ccccc21)NS(=O)(=O)c1ccc(-c2ccccc2)cc1 [Example 6, 2-(Biphenyl-4-sulfonylamino)-5-(2,3-dihydroindol-1-yl)-5-oxopentanecarboxylic acid] | – |
| 40 nM | 4 nM | O=C(O)[C@H](CCC(=O)N1CCc2ccccc21)NS(=O)(=O)c1ccc(-c2ccc(N3CCCC3)cc2)cc1 [Example 7, 5-(2,3-dihydroindol-1-yl)-5-oxo-2-(4′-pyrrolidin-1-yl-biphenyl-4-sulfonyl-amino)pentanoic acid] | – |
| – | – | O=C(O)[C@H](CCC(=O)N1CCc2ccccc21)NS(=O)(=O)c1ccc(-c2ccc(Cl)cc2)cc1 (stereo in doubt) [Example 8, 2-(4′-Chlorobiphenyl-4-sulfonylamino)-5-(2,3-dihydroindol-1-yl)-5-oxopentanoic acid] | solubility at 2 h ([3]; thermodynamic from solid, water, 25° C., stirred 2 h, mean value from two determinations, read-out: Solubility in water at 25° C. after 2 h): 200 µg/mL (≈ 401 µM); solubility at 3 h ([3]; thermodynamic from solid, water, 25° C., stirred 3 h, mean value from two determinations, read-out: Solubility in water at 25° C. After 3 h): 100 µg/mL (≈ 200 µM); Solubility in water at 25° C. Result ([3]; water, 25° C., data value obtained after 3 h is used): 100 µg/mL (≈ 200 µM) |
| – | – | NC(CO)(CO)CO.O=C(O)C(CCC(=O)N1CCc2ccccc21)NS(=O)(=O)c1ccc(-c2ccc(Cl)cc2)cc1 (stereo not shown) [Example 15, Tromethamine salt of 2-(4′-chlorobiphenyl-4-sulfonylamino)-5-(2,3-dihydroindol-1-yl)-5-oxopentanoic acid] | Solubility in water at 25° C. After 3 h [3]: 58000 µg/mL; Solubility in water at 25° C. Result [3]: 58000 µg/mL; Solubility in water at 25° C. after 2 h [3]: 58000 µg/mL; Water solubility of tromethamine salt higher than that of the free acid, factor [3]: ~600 |
| 100 nM | 6 nM | O=C(CC[C@H](NS(=O)(=O)c1ccc(-c2ccccc2)cc1)C(=O)O)NCCCN1CCOCC1 [Example 5, 4-(3-(4-(Biphenyl-4-sulfonylamino)-4-carboxybutyrylamino)-propyl)morpholin-4-ium trifluoroacetate] | – |
| 50 nM | 10 nM | O=C(O)[C@@H](CCC(=O)N1CCc2ccccc21)NS(=O)(=O)c1ccc(-c2ccc(Cl)cc2)cc1 [Example 14] | – |
| 30 nM | 2 nM | O=C(O)[C@H](CCC(=O)N1CCc2cc(F)ccc21)NS(=O)(=O)c1ccc(-c2ccc(N3CCCC3)cc2)cc1 [Example 12, 5-(5-Fluoro-2,3-dihydroindol-1-yl)-5-oxo-2-(4′-pyrrolidin-1-ylbiphenyl-4-sulfonylamino)pentanoic acid] | – |
| 100 nM | 10 nM | O=C(O)[C@H](CCC(=O)N1CCc2cc(F)ccc21)NS(=O)(=O)c1ccc(-c2ccc(N3CCOCC3)cc2)cc1 [Example 13, 5-(5-fluoro-2,3-dihydroindol-1-yl)-2-(4′-morpholin-4-yl-biphenyl-4-sulfonylamino)-5-oxopentanoic acid] | – |
| 100 nM | – | O=C(O)[C@H](CCC(=O)N1CCc2cc(F)ccc21)NS(=O)(=O)c1ccc(-c2ccc(Cl)cc2)cc1 [Example 10, 2-(4′-chloro-biphenyl-4-sulfonylamino)-5-(5-fluoro-2,3-dihydroindol-1-yl)-5-oxopentanoic acid] | – |
| 200 nM | – | O=C(CC[C@H](NS(=O)(=O)c1ccc(-c2ccccc2)cc1)C(=O)O)NCCNc1ccccc1 [Example 3, 2-(biphenyl-4-sulfonylamino)-4-(2-phenylamino-ethylcarbamoyl)butyric acid] | – |
| 100 nM | – | O=C(O)[C@H](CCC(=O)N1CCc2cc(F)ccc21)NS(=O)(=O)c1ccc(-c2ccc(Br)cc2)cc1 [Example 11, 2-(4′-bromobiphenyl-4-sulfonylamino)-5-(5-fluoro-2,3-dihydroindol-1-yl)-5-ox-opentanoic acid] | – |
| 100 nM | 10 nM | O=C(O)[C@H](CCC(=O)N1CCc2ccccc21)NS(=O)(=O)c1ccc(-c2ccc(Cl)cc2)cc1 [Example 8, 2-(4′-Chlorobiphenyl-4-sulfonylamino)-5-(2,3-dihydroindol-1-yl)-5-oxopentanoic acid] | – |
| 200 nM | – | O=C(CC[C@H](NS(=O)(=O)c1ccc(-c2ccccc2)cc1)C(=O)O)Nc1ccc2ccccc2c1 [Example 2, 2-(biphenyl-4-sulfonylamino)-4-(naphthalen-2-yl-carbamoyl)butyric acid] | – |
| 100 nM | – | O=C(O)[C@H](CCC(=O)N1CCc2ccccc21)NS(=O)(=O)c1ccc(-c2ccc(Br)cc2)cc1 [Example 9, 2-(4′-bromobiphenyl-4-sulfonyl-amino)-5-(2,3-dihydroindol-1-yl)-5-oxopentanoic acid] | – |

— patent publication US6335333B1, “N-arylsulfonylamino acid omega-amides” (Aventis Pharma Deutschland GmbH, priority 1998, dated 2002)
